US5250561A, “Tetrahydroindazole, tetrahydrocyclopentapyrazole, and hexahydrocycloheptapyrazole compounds and their use as HMG-COA reductase inhibitors” (Ortho Pharmaceutical Corporation, priority 1992, dated 1993)
pIC50: −log10 of the molar value. Counter-ions that a name gives are not always drawn.

Tests used:
HMG-CoA reductase = assay: HMG-CoA Reductase Isolation And Assay (ammonium sulfate precipitated enzyme from rat liver); assay type: biochemical, male Wistar rats; conditions: racemic mixture
Procedure: Livers were harvested from male Wistar rats (250 g) following a five day feeding with powdered chow containing 2% cholestyramine. Ammonium sulfate precipitated HMG-CoA reductase was prepared from these livers according to the method of Heller, et. al. (Heller, R. A. Shrewsbury, M. A. Journal of Biological Chemistry, 251, 1976, 3815-3822). HMG-CoA reductase activity was measured using a modification of the procedure of Edwards, et. al. (Edwards, P. A., Lemongello, […]. Journal of Lipid Research, 20, 1979, 40-46). The effects of compounds on HMG-CoA reductase activity were determined by combining the compound with the enzyme and preincubating for 10 minutes prior to addition of the substrate […].

Hep-G2 cells = assay: Cell Culture Cholesterol Biosynthesis Assay; assay type: cell-based; conditions: Homo sapiens, racemic mixture
Procedure: When the cells were 2/3 confluent, they were fed MEM containing Earles salts and delipidated serum protein (DLP) at 5 mg/mL and then incubated for a period of 24 h. DLP was prepared according to the procedure of Rothblat, et. al. ([…]., Howard, B. V. In Vitro (Rockville), 12, 1976, 554-557). The DLP medium was then removed and 3.3 mL of media containing the drug indicated was added. […] Fatty acids were extracted and digitonin precipitable sterols were recovered according the procedure of Kanduch and Saucier (Kandutch, A. A., Saucier, S. E. Journal of Biological Chemistry, 244, 1969, 2299-2305). To adjust for cell number per flask, the cholesterol synthesized was normalized to the fatty acids synthesized and results were expressed as percent inhibition vs. control.

Compound | pIC50 (HMG-CoA reductase; Table III) | pIC50 (Hep-G2 cells; HepG2, Table III) | other results
CCOC(=O)C[C@H](O)C[C@H](O)/C=C/c1c2c(nn1-c1ccc(F)cc1)C(Cc1ccccc1)CCC2 (mixture of isomers) [Compound 47, Ethyl (E)-(3RS,5SR)-7-[7-benzyl-2-(4-fluorophenyl)-4,5,6,7-tetrahydro-2H-indazol-3-yl]-3,5-dihydroxy-6-heptenoate] |  |  | pIC50 (HMG-CoA reductase; Table IV): 6.92; pIC50 (Hep-G2 cells; HepG2, Table IV): 6.54
O=C1C[C@H](O)C[C@@H](/C=C/c2c3c(nn2-c2ccc(F)cc2)C(Cc2ccccc2)CCC3)O1 (mixture of isomers) [Compound 79, (E)-(4RS,6SR)-6-[2-[7-Benzyl-2-(4-fluorophenyl)-4,5,6,7-tetrahydro-2H-indazol-3-yl]ethenyl]-4-hydroxy-3,4,5,6-tetrahydro-2H-pyran-2-one] |  |  | pIC50 (HMG-CoA reductase; Table V): 6.12; pIC50 (Hep-G2 cells; HepG2, Table V): 6.59
O=C(O)C[C@H](O)C[C@H](O)/C=C/c1nn(-c2ccc(F)cc2)c2c1CCC2 (relative stereo) [Compound 2] |  |  | pIC50 (HMG-CoA reductase; Table II): 4.00
O=C(O)C[C@H](O)C[C@H](O)/C=C/c1nn(Cc2ccc(F)cc2)c2c1CCCCC2 (relative stereo) [Compound 9] |  |  | pIC50 (HMG-CoA reductase; Table II): 4.00
O=C(O)C[C@H](O)C[C@H](O)/C=C/c1c2c(nn1-c1ccc(F)cc1)CCC2 (relative stereo) [Compound 10] | 5.29 |  | 
O=C(O)C[C@H](O)C[C@H](O)/C=C/c1c2c(nn1-c1ccc(F)cc1)-c1ccccc1CC2 (relative stereo) [Compound 22] | 4.89 |  | 
O=C(O)C[C@H](O)C[C@H](O)/C=C/c1c2c(nn1-c1ccc(F)cc1)CCCC2 (relative stereo) [Compound 25] | 5.60 |  | 
O=C(O)C[C@H](O)C[C@H](O)/C=C/c1c2c(nn1-c1ccc(Cl)cc1)CCCC2 (relative stereo) [Compound 26] | 5.06 |  | 
C/C(=C\c1c2c(nn1-c1ccc(F)cc1)CCCC2)[C@@H](O)C[C@@H](O)CC(=O)O (relative stereo) [Compound 27] | 5.57 |  | 
O=C(O)C[C@H](O)C[C@H](O)/C=C/c1c2c(nn1-c1ccc(F)cc1)-c1ccccc1CCC2 (relative stereo) [Compound 36] | 5.68 |  | 
O=C(O)C[C@H](O)C[C@H](O)/C=C/c1c2c(nn1-c1ccc(F)cc1)CCCCC2 (relative stereo) [Compound 37] | 5.42 |  | 
O=C(O)C[C@H](O)C[C@H](O)/C=C/c1c2c(nn1Cc1ccc(F)cc1)CCCCC2 (relative stereo) [Compound 38] | 4.64 |  | 
O=C1C[C@H](O)C[C@@H](/C=C/c2c3c(nn2-c2ccc(F)cc2)CCCC3)O1 (relative stereo) [Compound 83] |  |  | pIC50 (HMG-CoA reductase; Table V): 5.05
O=C(O)C[C@H](O)C[C@H](O)/C=C/c1c2c(nn1-c1ccc(F)cc1)C(Cc1ccc(-c3ccccc3)cc1)CCC2 (stereo partly drawn) [Compound 1, (E)-(3RS,5SR)-7-[7-[(1,1'-Biphenyl)-4-ylmethyl]-2-(4-fluorophenyl)-4,5,6,7-tetrahydro-2H-indazol-3-yl]-3,5-dihydroxy-6-heptenoic acid.Sodium salt.Dihydrate] | 8.57 | 6.62 | 
O=C(O)C[C@H](O)C[C@H](O)/C=C/c1nn(-c2ccc(F)cc2)c2c1CCCC2Cc1ccc(F)cc1 (stereo partly drawn) [Compound 3] |  |  | pIC50 (HMG-CoA reductase; Table II): 4.51; pIC50 (Hep-G2 cells; HepG2, Table II): 4.57
O=C(O)C[C@H](O)C[C@H](O)/C=C/c1nn(-c2ccc(F)cc2)c2c1CCCC2C1CCCCC1 (stereo partly drawn) [Compound 4] |  |  | pIC50 (HMG-CoA reductase; Table II): 4.33
CCC1CCCc2c(/C=C/[C@@H](O)C[C@@H](O)CC(=O)O)nn(-c3ccc(F)cc3)c21 (stereo partly drawn) [Compound 5] |  |  | pIC50 (HMG-CoA reductase; Table II): 4.46
CC1CCCc2c(/C=C/[C@@H](O)C[C@@H](O)CC(=O)O)nn(-c3ccc(F)cc3)c21 (stereo partly drawn) [Compound 6] |  |  | pIC50 (HMG-CoA reductase; Table II): 4.00
O=C(O)C[C@H](O)C[C@H](O)/C=C/c1nn(-c2ccc(F)cc2)c2c1CCCC2CCc1ccccc1 (stereo partly drawn) [Compound 7] |  |  | pIC50 (Hep-G2 cells; HepG2, Table II): < 5.00
O=C(O)C[C@H](O)C[C@H](O)/C=C/c1nn(-c2ccc(F)cc2)c2c1CCCC2CC=Cc1ccccc1 (stereo partly drawn) [Compound 8] |  |  | pIC50 (HMG-CoA reductase; Table II): 5.52
O=C(O)C[C@H](O)C[C@H](O)/C=C/c1c2c(nn1-c1ccc(F)cc1)C(Cc1cccc3ccccc13)CCC2 (stereo partly drawn) [Compound 11] | 7.59 | 6.43 | 
O=C(O)C[C@H](O)C[C@H](O)/C=C/c1c2c(nn1-c1ccc(F)cc1)C(Cc1ccccc1Cl)CCC2 (stereo partly drawn) [Compound 12] | 7.00 | 5.89 | 
O=C(O)C[C@H](O)C[C@H](O)/C=C/c1c2c(nn1-c1ccc(F)cc1)C(Cc1ccc3ccccc3c1)CCC2 (stereo partly drawn) [Compound 13] | 8.25 | 6.48 | 
COc1cccc(CC2CCCc3c2nn(-c2ccc(F)cc2)c3/C=C/[C@@H](O)C[C@@H](O)CC(=O)O)c1 (stereo partly drawn) [Compound 14] | 7.32 | 5.96 | 
COc1ccc(CC2CCCc3c2nn(-c2ccc(F)cc2)c3/C=C/[C@@H](O)C[C@@H](O)CC(=O)O)cc1OC (stereo partly drawn) [Compound 15] | 6.77 | 5.41 | 

Compound | pIC50 (HMG-CoA reductase; Table III) | pIC50 (Hep-G2 cells; HepG2, Table III) | other results
O=C(O)C[C@H](O)C[C@H](O)/C=C/c1c2c(nn1-c1ccc(F)cc1)C(Cc1ccc(Cl)cc1)CCC2 (stereo partly drawn) [Compound 16] | 7.24 | 6.44 | 
O=C(O)C[C@H](O)C[C@H](O)/C=C/c1c2c(nn1-c1ccc(F)cc1)C(Cc1ccc(F)cc1)CCC2 (stereo partly drawn) [Compound 17] | 6.82 | 6.15 | 
CC(C)c1ccc(CC2CCCc3c2nn(-c2ccc(F)cc2)c3/C=C/[C@@H](O)C[C@@H](O)CC(=O)O)cc1 (stereo partly drawn) [Compound 18] | 7.85 | 6.59 | 
Cc1ccc(CC2CCCc3c2nn(-c2ccc(F)cc2)c3/C=C/[C@@H](O)C[C@@H](O)CC(=O)O)cc1 (stereo partly drawn) [Compound 19] | 7.72 | 6.89 | 
COc1ccc(CC2CCCc3c2nn(-c2ccc(F)cc2)c3/C=C/[C@@H](O)C[C@@H](O)CC(=O)O)cc1 (stereo partly drawn) [Compound 20] | 7.85 | 6.34 | 
CC(C)(C)c1ccc(CC2CCCc3c2nn(-c2ccc(F)cc2)c3/C=C/[C@@H](O)C[C@@H](O)CC(=O)O)cc1 (stereo partly drawn) [Compound 21] | 7.80 | 6.87 | 
O=C(O)C[C@H](O)C[C@H](O)/C=C/c1c2c(nn1-c1ccc(F)cc1)C(C1CCCCC1)CCC2 (stereo partly drawn) [Compound 23] | 5.11 |  | 
CCC1CCCc2c1nn(-c1ccc(F)cc1)c2/C=C/[C@@H](O)C[C@@H](O)CC(=O)O (stereo partly drawn) [Compound 24] | 6.00 |  | 
CC1CCCc2c1nn(-c1ccc(F)cc1)c2/C=C/[C@@H](O)C[C@@H](O)CC(=O)O (stereo partly drawn) [Compound 28] | 5.96 |  | 
CCCC1CCCc2c1nn(-c1ccc(F)cc1)c2/C=C/[C@@H](O)C[C@@H](O)CC(=O)O (stereo partly drawn) [Compound 29] | 5.89 |  | 
O=C(O)C[C@H](O)C[C@H](O)/C=C/c1c2c(nn1-c1ccc(F)cc1)C(c1ccccc1)CCC2 (stereo partly drawn) [Compound 30] | 5.51 |  | 
O=C(O)C[C@H](O)C[C@H](O)/C=C/c1c2c(nn1-c1ccc(F)cc1)C(Cc1ccccc1)CCC2 (stereo partly drawn) [Compound 31] | 7.07 | 6.66 | 
O=C(O)C[C@H](O)C[C@H](O)/C=C/c1c2c(nn1-c1ccc(F)cc1)C(CCc1ccccc1)CCC2 (stereo partly drawn) [Compound 32] | 6.48 | 5.76 | 
O=C(O)C[C@H](O)C[C@H](O)/C=C/c1c2c(nn1-c1ccc(F)cc1)C(CCCc1ccccc1)CCC2 (stereo partly drawn) [Compound 33] | 6.80 | 5.96 | 
O=C(O)C[C@H](O)C[C@H](O)/C=C/c1c2c(nn1-c1ccc(F)cc1)C(CC=Cc1ccccc1)CCC2 (stereo partly drawn) [Compound 34] | 7.49 | 5.89 | 
CCC(C)C1CCCc2c1nn(-c1ccc(F)cc1)c2/C=C/[C@@H](O)C[C@@H](O)CC(=O)O (stereo partly drawn) [Compound 35] | 6.00 |  | 
COC(=O)C[C@H](O)C[C@H](O)/C=C/c1c2c(nn1-c1ccc(F)cc1)C(Cc1ccc3ccccc3c1)CCC2 (stereo partly drawn) [Compound 42] |  |  | pIC50 (Hep-G2 cells; HepG2, Table I): 6.44
COC(=O)C[C@H](O)C[C@H](O)/C=C/c1c2c(nn1-c1ccc(F)cc1)C(Cc1ccc(C(C)C)cc1)CCC2 (stereo partly drawn) [Compound 43] |  |  | pIC50 (Hep-G2 cells; HepG2, Table I): 6.92
CCOC(=O)C[C@H](O)C[C@H](O)/C=C/c1c2c(nn1-c1ccc(F)cc1)C(Cc1cccc(OC)c1)CCC2 (stereo partly drawn) [Compound 58] |  |  | pIC50 (HMG-CoA reductase; Table IV): 6.68; pIC50 (Hep-G2 cells; HepG2, Table IV): 6.10
CCOC(=O)C[C@H](O)C[C@H](O)/C=C/c1c2c(nn1-c1ccc(F)cc1)C(Cc1ccc(Cl)cc1)CCC2 (stereo partly drawn) [Compound 60] |  |  | pIC50 (Hep-G2 cells; HepG2, Table IV): 6.34
CCOC(=O)C[C@H](O)C[C@H](O)/C=C/c1c2c(nn1-c1ccc(F)cc1)C(Cc1ccc(C)cc1)CCC2 (stereo partly drawn) [Compound 62] |  |  | pIC50 (HMG-CoA reductase; Table IV): 7.15; pIC50 (Hep-G2 cells; HepG2, Table IV): 6.70
CCOC(=O)C[C@H](O)C[C@H](O)/C=C/c1c2c(nn1-c1ccc(F)cc1)C(Cc1ccc(C(C)(C)C)cc1)CCC2 (stereo partly drawn) [Compound 64] |  |  | pIC50 (HMG-CoA reductase; Table IV): 7.52
CCC(CC)CC1CCCc2c1nn(-c1ccc(F)cc1)c2/C=C/[C@@H]1C[C@@H](O)CC(=O)O1 (stereo partly drawn) [Compound 80] |  |  | pIC50 (HMG-CoA reductase; Table V): 4.54
O=C1C[C@H](O)C[C@@H](/C=C/c2c3c(nn2-c2ccc(F)cc2)C(Cc2ccc4ccccc4c2)CCC3)O1 (stereo partly drawn) [Compound 81] |  |  | pIC50 (Hep-G2 cells; HepG2, Table V): 6.41
CC(C)(C)c1ccc(CC2CCCc3c2nn(-c2ccc(F)cc2)c3/C=C/[C@@H]2C[C@@H](O)CC(=O)O2)cc1 (stereo partly drawn) [Compound 82] |  |  | pIC50 (HMG-CoA reductase; Table V): 7.15; pIC50 (Hep-G2 cells; HepG2, Table V): 6.64
